Type in all cases: biochemical
For one assay, the target named is T1, LATS2 (Homo sapiens, UniProt Q9NRM7).
T1 sequence (Q9NRM7 1-1088): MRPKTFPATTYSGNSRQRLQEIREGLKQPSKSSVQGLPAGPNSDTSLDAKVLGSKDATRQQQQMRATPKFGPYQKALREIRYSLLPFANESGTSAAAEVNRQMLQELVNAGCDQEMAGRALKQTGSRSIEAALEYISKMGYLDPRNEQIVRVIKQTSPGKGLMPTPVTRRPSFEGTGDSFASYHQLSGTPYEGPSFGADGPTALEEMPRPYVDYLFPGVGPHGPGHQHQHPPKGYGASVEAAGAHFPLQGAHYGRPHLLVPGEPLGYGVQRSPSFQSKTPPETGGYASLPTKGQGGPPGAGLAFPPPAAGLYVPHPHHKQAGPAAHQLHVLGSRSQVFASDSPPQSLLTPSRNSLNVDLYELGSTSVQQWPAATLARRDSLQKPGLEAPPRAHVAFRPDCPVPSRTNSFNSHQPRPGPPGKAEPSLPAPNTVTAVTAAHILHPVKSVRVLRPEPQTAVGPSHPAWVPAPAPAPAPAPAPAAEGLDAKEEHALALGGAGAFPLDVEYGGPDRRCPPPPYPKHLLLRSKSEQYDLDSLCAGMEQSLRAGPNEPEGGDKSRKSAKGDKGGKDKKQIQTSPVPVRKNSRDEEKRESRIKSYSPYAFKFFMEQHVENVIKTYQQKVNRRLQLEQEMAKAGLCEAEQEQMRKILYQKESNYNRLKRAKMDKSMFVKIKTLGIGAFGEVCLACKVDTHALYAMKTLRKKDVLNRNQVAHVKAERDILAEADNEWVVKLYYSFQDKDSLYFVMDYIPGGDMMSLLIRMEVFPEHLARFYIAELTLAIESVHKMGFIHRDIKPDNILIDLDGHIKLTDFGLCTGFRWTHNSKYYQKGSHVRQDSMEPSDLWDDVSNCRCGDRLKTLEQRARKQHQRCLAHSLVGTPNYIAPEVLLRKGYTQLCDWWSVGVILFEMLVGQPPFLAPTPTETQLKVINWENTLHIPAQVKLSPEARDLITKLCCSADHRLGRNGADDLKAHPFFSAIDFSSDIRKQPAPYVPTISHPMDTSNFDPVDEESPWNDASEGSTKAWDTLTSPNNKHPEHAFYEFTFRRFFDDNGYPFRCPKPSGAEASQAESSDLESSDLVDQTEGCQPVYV
The assay can be described thus: RBC HotSpot kinase assay (33P-ATP, P81 filter-binding), LATS2. Put shortly: (§1)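 Hepes pH 7.5/MgCl2/EGTA/Brij35/BSA/Na3VO4/DTT buffer, cofactors per kinase; cpd acoustically dispensed, 20 min preinc RT; start w/ 33P-ATP, 2 h RT; P81 filter readout; 10-pt singlet IC50.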

The target of another assay is AKT (Homo sapiens, UniProt P31749). Put plainly: RBC HotSpot kinase assay (33P-ATP, P81 filter-binding), AKT. An outline of the steps:
as §1

For the next assay, the target named is T2, LATS1 (Homo sapiens, UniProt O95835).
T2 sequence (O95835 1-1130): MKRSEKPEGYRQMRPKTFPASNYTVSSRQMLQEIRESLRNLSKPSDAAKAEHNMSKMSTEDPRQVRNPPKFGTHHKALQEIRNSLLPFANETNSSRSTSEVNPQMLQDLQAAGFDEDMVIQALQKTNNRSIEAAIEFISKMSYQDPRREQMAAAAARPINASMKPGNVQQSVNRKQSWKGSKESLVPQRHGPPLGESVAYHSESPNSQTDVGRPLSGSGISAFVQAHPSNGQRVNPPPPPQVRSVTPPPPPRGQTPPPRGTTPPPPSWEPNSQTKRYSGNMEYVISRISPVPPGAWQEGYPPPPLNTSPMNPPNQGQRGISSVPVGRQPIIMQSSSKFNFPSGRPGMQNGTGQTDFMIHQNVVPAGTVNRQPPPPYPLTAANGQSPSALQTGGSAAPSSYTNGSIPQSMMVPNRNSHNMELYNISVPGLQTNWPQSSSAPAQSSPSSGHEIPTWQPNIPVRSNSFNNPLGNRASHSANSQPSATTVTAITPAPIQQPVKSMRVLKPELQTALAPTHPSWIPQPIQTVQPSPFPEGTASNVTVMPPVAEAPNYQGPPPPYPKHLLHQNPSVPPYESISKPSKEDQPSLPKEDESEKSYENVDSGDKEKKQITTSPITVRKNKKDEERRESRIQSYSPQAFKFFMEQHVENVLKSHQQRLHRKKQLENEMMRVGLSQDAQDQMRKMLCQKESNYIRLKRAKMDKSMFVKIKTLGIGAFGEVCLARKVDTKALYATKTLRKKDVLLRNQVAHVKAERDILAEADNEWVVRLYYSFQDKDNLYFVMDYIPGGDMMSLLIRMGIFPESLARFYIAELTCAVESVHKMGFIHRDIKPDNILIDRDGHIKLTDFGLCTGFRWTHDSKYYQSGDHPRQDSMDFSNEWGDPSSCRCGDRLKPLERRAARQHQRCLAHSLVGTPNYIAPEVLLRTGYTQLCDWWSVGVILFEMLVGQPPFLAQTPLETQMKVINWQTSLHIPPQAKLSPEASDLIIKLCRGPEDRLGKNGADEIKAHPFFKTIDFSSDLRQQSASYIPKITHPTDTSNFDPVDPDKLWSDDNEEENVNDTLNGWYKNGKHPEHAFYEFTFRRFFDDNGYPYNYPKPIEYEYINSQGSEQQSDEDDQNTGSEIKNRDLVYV
The assay can be described thus: RBC HotSpot kinase assay (33P-ATP, P81 filter-binding), LATS1. Put shortly:
as §1

[1] abbreviates: Table 28, biochemical kinase assay, read-out: LATS2 IC50.
Setting [2] is: Table 28, biochemical kinase assay, read-out: AKT IC50.
Where [3] appears, read: Table 28, biochemical kinase assay, read-out: LATS1 IC50.

Like-named read-outs stand apart in the source and are kept apart here. Some results are limits rather than exact numbers.

Chain of AKT (P31749 whole entry): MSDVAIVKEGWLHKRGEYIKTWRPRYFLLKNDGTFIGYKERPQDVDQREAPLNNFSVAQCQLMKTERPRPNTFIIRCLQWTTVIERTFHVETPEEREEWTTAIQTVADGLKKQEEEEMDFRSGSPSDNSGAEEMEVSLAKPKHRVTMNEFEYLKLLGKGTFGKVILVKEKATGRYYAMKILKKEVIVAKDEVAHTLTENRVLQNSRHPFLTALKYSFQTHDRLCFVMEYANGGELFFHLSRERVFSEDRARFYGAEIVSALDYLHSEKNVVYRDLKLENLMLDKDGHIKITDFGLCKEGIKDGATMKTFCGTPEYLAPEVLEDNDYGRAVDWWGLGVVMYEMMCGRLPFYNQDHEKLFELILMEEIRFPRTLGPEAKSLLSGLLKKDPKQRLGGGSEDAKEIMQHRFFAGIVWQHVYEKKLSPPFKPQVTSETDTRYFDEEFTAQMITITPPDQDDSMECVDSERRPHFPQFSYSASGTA

On to `Fc1c[nH]c2nccc(-c3ccc(C4(c5nnco5)CCNCC4)cc3)c12` [Compound 191, 2-(4-(4-(3-fluoro-1H-pyrrolo[2,3-b]pyridin-4-yl)phenyl)piperidin-4-yl)-1,3,4-oxadiazole], for which the values for the IC50 on LATS2 (setting [1]), on AKT (setting [2]) and at LATS1 (setting [3]) were 43 nM, 200 nM and 57 nM, respectively.
On the same counts, the results for `Cc1cnc(C2(c3ccc(-c4ccnc5[nH]cc(F)c45)cc3)CCNCC2)o1` [Compound 192, 2-(4-(4-(3-fluoro-1H-pyrrolo[2,3-b]pyridin-4-yl)phenyl)piperidin-4-yl)-5-methyloxazole] are 20 nM, 25 nM and 29 nM.
For the compound `COC(=O)C1(c2ccc(-c3ccnc4[nH]cc(F)c34)cc2)CCN(C)CC1` [Compound 193, Methyl 4-(4-(3-fluoro-1H-pyrrolo[2,3-b]pyridin-4-yl)phenyl)-1-methylpiperidine-4-carboxylate], the IC50 amounted to 26 nM at LATS2, 128 nM on AKT and 53 nM on LATS1.
As to `O=C(O)C1(c2ccc(-c3ccnc4[nH]cc(F)c34)cc2)CCNCC1` [Compound 194, 4-(4-(3-fluoro-1H-pyrrolo[2,3-b]pyridin-4-yl)phenyl)piperidine-4-carboxylic acid], the concentration for half-maximal inhibition (IC50) on LATS2 (setting [1]), at AKT (setting [2]) and on LATS1 (setting [3]) was greater than 10000 nM throughout.
On to `Cc1nnc(C2(c3ccc(-c4ccnc5[nH]cc(F)c45)cc3)CCN(C(=O)OC(C)(C)C)CC2)o1` [Compound 195, tert-butyl 4-(4-(3-fluoro-1H-pyrrolo[2,3-b]pyridin-4-yl)phenyl)-4-(5-methyl-1,3,4-oxadiazol-2-yl)piperidine-1-carboxylate], for which the IC50 is 3520 nM at LATS2 (setting [1]), greater than 10000 nM on AKT (setting [2]) and 5790 nM at LATS1 (setting [3]).
For the compound `CC(C)(C)OC(=O)N1CCC(c2ccc(-c3ccnc4[nH]cc(F)c34)cc2)(c2nnco2)CC1` [Compound 196, tert-butyl 4-(4-(3-fluoro-1H-pyrrolo[2,3-b]pyridin-4-yl)phenyl)-4-(1,3,4-oxadiazol-2-yl)piperidine-1-carboxylate], the IC50 at LATS2 (setting [1]), on AKT (setting [2]) and on LATS1 (setting [3]) was greater than 10000 nM each time.
`Fc1c[nH]c2nccc(-c3ccc(C4(C(F)(F)F)CCNCC4)cc3Cl)c12` [Compound 197, 4-(2-chloro-4-(4-(trifluoromethyl)piperidin-4-yl)phenyl)-3-fluoro-1H-pyrrolo[2,3-b]pyridine]: the IC50 at LATS2 (setting [1]) turned out to be 195 nM; at AKT (setting [2]), 85 nM; on LATS1 (setting [3]), 424 nM.
Turning to `COC(=O)C1(c2ccc(-c3ccnc4[nH]cc(F)c34)cc2Cl)CCNCC1` [Compound 198, methyl 4-(2-chloro-4-(3-fluoro-1H-pyrrolo[2,3-b]pyridin-4-yl)phenyl)piperidine-4-carboxylate], the IC50 on LATS2 (setting [1]) was determined as 10 nM; at AKT (setting [2]) it was 124 nM; on LATS1 (setting [3]), 7.4 nM.
On the same counts, the results for `CCC1(c2ccc(-c3ccnc4[nH]cc(F)c34)cc2Cl)CCNCC1` [Compound 199, 4-(3-chloro-4-(4-ethylpiperidin-4-yl)phenyl)-3-fluoro-1H-pyrrolo[2,3-b]pyridine] are 34 nM, 463 nM and 38 nM.
For the compound `CC1(c2ccc(-c3ccnc4[nH]cc(F)c34)cc2Cl)CCNCC1` [Compound 200, 4-(3-chloro-4-(4-methylpiperidin-4-yl)phenyl)-3-fluoro-1H-pyrrolo[2,3-b]pyridine], the IC50 was determined as 20 nM on LATS2 (setting [1]), 12 nM at AKT (setting [2]) and 34 nM on LATS1 (setting [3]).
For the compound `CC(C)c1cc(-c2ccnc3[nH]cc(-c4ccccc4)c23)ccc1CN` [Compound 202, (2-isopropyl-4-(3-phenyl-1H-pyrrolo[2,3-b]pyridin-4-yl)phenyl)methanamine], the concentration for half-maximal inhibition (IC50) at LATS2 (setting [1]) is 7 nM; on AKT (setting [2]), 743 nM; on LATS1 (setting [3]) it was 17 nM.
The corresponding values for `CC(C)(C)Nc1cc(-c2ccnc3[nH]ccc23)ccc1CN` [Compound 203, 2-(aminomethyl)-N-(tert-butyl)-5-(1H-pyrrolo[2,3-b]pyridin-4-yl)aniline] are 135 nM, 1380 nM and 70.3 nM.
The corresponding values for `Fc1ccccc1CNCc1ccc(-c2ccnc3[nH]ccc23)cc1` [Compound 204, N-(4-(1H-pyrrolo[2,3-b]pyridin-4-yl)benzyl)-1-(2-fluorophenyl)methanamine] are 33.1 nM, 1430 nM and 15.9 nM.
In the case of `CC(C)(N)c1ccc(-c2ccnc3[nH]ccc23)cc1Cl` [Compound 205, 2-(2-chloro-4-(1H-pyrrolo[2,3-b]pyridin-4-yl)phenyl)propan-2-amine], the IC50 on LATS2 (setting [1]) was 31.8 nM; at AKT (setting [2]), 437 nM; at LATS1 (setting [3]), 9.5 nM.
For `CC(C)(N)c1ccc(-c2ccnc3[nH]ccc23)cc1-c1ccccc1` [Compound 206, 2-(5-(1H-pyrrolo[2,3-b]pyridin-4-yl)-[1,1′-biphenyl]-2-yl)propan-2-amine], the IC50 is 74.9 nM on LATS2 (setting [1]), 1620 nM at AKT (setting [2]) and 10.2 nM at LATS1 (setting [3]).
Take `CC(C)(N)c1ccc(-c2ccnc3[nH]cc(Br)c23)cc1-c1ccccc1` [Compound 207, 2-(5-(3-bromo-1H-pyrrolo[2,3-b]pyridin-4-yl)-[1,1′-biphenyl]-2-yl)propan-2-amine]: the concentration for half-maximal inhibition (IC50) came out at 9.6 nM at LATS2 (setting [1]), 267 nM at AKT (setting [2]) and 4 nM at LATS1 (setting [3]).
Turning to `CN(C)C(C)(C)c1ccc(-c2ccnc3[nH]cc(F)c23)cc1` [Compound 208, 2-(4-(3-fluoro-1H-pyrrolo[2,3-b]pyridin-4-yl)phenyl)-N,N-dimethylpropan-2-amine], the IC50 on LATS2 (setting [1]) worked out at 15 nM; on AKT (setting [2]), 349 nM; at LATS1 (setting [3]), 8.3 nM.
The corresponding values for `CN(C)C(C)(C)c1ccc(-c2ccnc3[nH]ccc23)cc1` [Compound 209, 2-(4-(1H-pyrrolo[2,3-b]pyridin-4-yl)phenyl)-N,N-dimethylpropan-2-amine] are 146 nM, 1250 nM and 43 nM.
For `CC(C)(N)c1ccc(-c2ccnc3[nH]cc(Br)c23)cc1` [Compound 210, 2-(4-(3-bromo-1H-pyrrolo[2,3-b]pyridin-4-yl)phenyl)propan-2-amine], the values for the IC50 at LATS2 (setting [1]), at AKT (setting [2]) and on LATS1 (setting [3]) were 4.7 nM, 331 nM and 24 nM, respectively.

Source of the values: patent US20250361230A1, “LATS Inhibitors and Uses Thereof” (The USA, as Represented by the Secretary, Dept. of Heath …, priority 2022, published 2025).
